Experimental data taken from patent US11001850B2, “Constructs and methods for biosynthesis of cyclopamine” (priority 2014, dated 2021).

Key:
Assay type in all cases: biochemical, Veratrum californicum
[1] = tested on: CYP90B27 (cholesterol 22-hydroxylase); assay: Substrate testing of CYP90B27 (cholesterol 22-hydroxylase) co-expressed with CPR in Sf9 cells; design: key to Production of a detectable product (substrate testing), CYP90B27: Production of a detectable product is indicated by a (+); details: for Production of a detectable product (substrate testing), CYP90B27: 7.5 μM substrate, crude Sf9 cell suspension with CPR, 1.25 mM NADPH, 30° C. for 2 hours, GC-MS or LC-MS/MS; for Hydroxylation of substrate by cholesterol 22-hydroxylase (VC2646), in words: Sf9 cells with CPR, GC-MS
Method: Compounds were prepared to 1 mM stock solutions of 100% DMSO and diluted with H2O.
(§1) Standards were obtained from Sigma Aldrich, Research Plus, and Avanti. For GC-MS analysis, 5 individual assays per substrate were pooled after incubation at 30° C. for 2 hours; one assay produced sufficient product for analysis by LC-MS/MS. Assay conditions were as follows: 80 μl S. frugiperda Sf9 cell suspension (obtained by re-suspension of 50 ml viral infected culture pellet in 3.5 ml of 100 mM tricine pH 7.4/5 mM thioglycolic acid), 60 mM potassium phosphate buffer pH 8, 1.25 mM NADPH, 7.5 μM substrate, and H2O in a total volume of 200 μl. Controls were performed with no enzyme and S. frugiperda Sf9 cells expressing an unrelated cytochrome P450, or CPR-only, for each assay.

[2] = tested on: CYP94N1 (22-hydroxycholesterol 26-hydroxylase/oxidase); assay: Substrate testing of CYP94N1 (22-hydroxycholesterol 26-hydroxylase/oxidase) co-expressed with CPR in Sf9 cells; design: key to Production of a detectable product (substrate testing), CYP94N1: Production of a detectable product is indicated by a (+); details: for Hydroxylation of substrate by VC12709 (22-hydroxycholesterol 26-hydroxylase/oxidase), in words: Sf9 cells with CPR, GC-MS
Method: (§2) Each cytochrome P450 co-expressed with CPR in S. frugiperda Sf9 cells was subjected to individual enzyme assays with the compounds found in Table 6 to determine functionality. Compounds were prepared to 1 mM stock solutions of 100% DMSO and diluted with H2O.
as §1
Assay for GC-MS: Cytochrome P450 enzyme assay conditions were identical to those stated above using S. frugiperda Sf9 cell suspensions with the following modifications. First, 12 assays each containing 22-hydroxy-26-aminocholesterol 22-oxidase+CPR, 22-hydroxycholesterol 26-hydroxylase/oxidase+CPR, or control cytochrome P450+CPR and each with pure 22(R)-hydroxycholesterol were allowed to incubate overnight at 30° C. Like assays were pooled, extracted 3 times with 2 volumes ethyl acetate, dried under N2, and re-suspended in 180 μl of 25% DMSO. Extracts containing the enzymatic product of the 22-hydroxycholesterol 26-hydroxylase/oxidase+CPR and 22(R)-hydroxycholesterol were divided equally and used as substrate for 22-hydroxy-26-aminocholesterol 22-oxidase+CPR and control cytochrome P450+CPR. Extracts containing the enzymatic product of 22-hydroxy-26-aminocholesterol 22-oxidase+CPR and 22(R)-hydroxycholesterol were divided and used as substrate in 6 assays containing 22-hydroxycholesterol 26-hydroxylase/oxidase+CPR and 6 assays containing control cytochrome P450+CPR. Control P450+CPR assay was run in parallel, treated identically and added to another control P450 assay. Refer to FIG. 1A for an overview of the experiment. Assays were allowed to incubate for 20 min at 30° C. then stopped by addition of 20 μl of 20% TCA with vortexing. Like assays were pooled, extracted, derivatized, and analyzed by GC-MS using the method stated above.

[3] = tested on: CYP90G1 (22-hydroxy-26-aminocholesterol 22-oxidase); assay: Substrate testing of CYP90G1 (22-hydroxy-26-aminocholesterol 22-oxidase) co-expressed with CPR in Sf9 cells; design: key to Production of a detectable product (substrate testing), CYP90G1: Production of a detectable product is indicated by a (+); details: for Production of a detectable product (substrate testing), CYP90G1: 7.5 μM substrate, crude Sf9 cell suspension with CPR, 1.25 mM NADPH, 30° C. for 2 hours, GC-MS or LC-MS/MS; for Oxidation of the 22-hydroxy position of substrate by VC13284 (22-hydroxy-26-aminocholesterol 22-oxidase), in words: Sf9 cells with CPR, GC-MS / LC-MS/MS
Method: as §2, §1

| SMILES | Production of a detectable product (substrate testing), CYP90B27 [1] | Hydroxylation of substrate by cholesterol 22-hydroxylase (VC2646), in words [1] | Hydroxylation of substrate by VC12709 (22-hydroxycholesterol 26-hydroxylase/oxidase), in words [2] | Production of a detectable product (substrate testing), CYP90G1 [3] | Oxidation of the 22-hydroxy position of substrate by VC13284 (22-hydroxy-26-aminocholesterol 22-oxidase), in words [3] | Production of a detectable product (substrate testing), CYP94N1 ([2]; 7.5 μM substrate, crude Sf9 cell suspension with CPR, 1.25 mM NADPH, 30° C. for 2 hours, GC-MS or LC-MS/MS) |
| --- | --- | --- | --- | --- | --- | --- |
| CC(C)CCC[C@@H](C)[C@H]1CC[C@H]2[C@@H]3CC=C4C[C@@H](O)CC[C@]4(C)[C@H]3CC[C@]12C [cholesterol] | + | added a hydroxyl group to the 22-position | not detected |  |  |  |
| CC(C)CCC(=O)[C@@H](C)[C@H]1CC[C@H]2[C@@H]3CC=C4C[C@@H](O)CC[C@]4(C)[C@H]3CC[C@]12C [22-keto-cholesterol] |  |  | unable to hydroxylate |  |  |  |
| CC(C)CC[C@@H](O)[C@@H](C)[C@H]1CC[C@H]2[C@@H]3CC=C4C[C@@H](O)CC[C@]4(C)[C@H]3CC[C@]12C [22(R)-hydroxycholesterol] | + |  | found to hydroxylate | + | oxidizes the 22-hydroxy position | + |
| CC(C)CCC[C@@H](C)[C@H]1CC[C@H]2[C@@H]3[C@@H](O)C=C4C[C@@H](O)CC[C@]4(C)[C@H]3CC[C@]12C [7β-hydroxycholesterol] | + | hydroxylated |  |  |  |  |
| CC(CO)CCC(O)[C@@H](C)[C@H]1CC[C@H]2[C@@H]3CC=C4C[C@@H](O)CC[C@]4(C)[C@H]3CC[C@]12C (stereo partly shown) [22,26-dihydroxycholesterol] |  |  |  | + | oxidizes the 22-hydroxy position |  |
| C[C@@H](CO)CCC[C@@H](C)[C@H]1CC[C@H]2[C@@H]3CC=C4C[C@@H](O)CC[C@]4(C)[C@H]3CC[C@]12C [26-hydroxycholesterol] | + | hydroxylated |  |  |  |  |
| CC(CN)CCC(O)[C@@H](C)[C@H]1CC[C@H]2[C@@H]3CC=C4C[C@@H](O)CC[C@]4(C)[C@H]3CC[C@]12C (stereo partly shown) [22-hydroxy-26-aminocholesterol] |  |  |  |  | oxidizes the 22-hydroxy position |  |
